According to publication PMC11879040, “Advancing systemic toxicity risk assessment: Evaluation of a NAM-based toolbox approach” (Toxicological Sciences, 2024):
Where two headings read alike, the source gives them in different places.

Key:
HepaRG cells = experiment: High-throughput transcriptomics (HTTr, TempO-Seq), HepaRG, 24 h; type: cell-based, human; settings: HepaRG; for pod_httr_bifrost PoD: HTTr BIFROST PoD; for podl_path_minbmd PoD: HTTr minimum pathway BMD(L)
Protocol: (§1) HepG2, HepaRG, and MCF7 cells were treated with each compound for 24 h across a dose range of 7 concentrations and lysed using TempO-Seq lysis buffer (BioSpyder Technologies, proprietary kit, see [Middleton et al. 2022] for method details). Sequencing was performed using TempO-Seq (BioClavis) version 2 of the human whole transcriptome panel and analyzed as described previously in Middleton et al.

HepG2 cells [1] = experiment: Cell stress panel (CSP), 24 h, 8 concentrations, BIFROST global PoD; type: cell-based; settings: HepG2; cell stress panel PoD
Protocol: Compounds were tested using the previously developed cell stress panel ([Hatherell et al. 2020]) and the expanded biomarker panel outlined in Middleton et al. HepG2 cells were treated with all compounds for 24 h across 8 concentrations prior to biomarker analysis. The same plate layout and number of replicates (3 biological and 2 technical) were used as previously for each assay within the panel.

[2] = tested on: Glutamate receptor ionotropic NMDA 1 non-selective, GRIN1 (r)
[3] = tested on: Potassium Voltage-Gated Channel Kv non-selective, KCNQ1 (r); experiment: IPP KCNQ1 binding (antagonist radioligand); set-up: species or system rat; settings: IPP screening at 100 uM; control α-dendrotoxin
HepG2 cells [4] = experiment: High-throughput transcriptomics (HTTr, TempO-Seq), HepG2, 24 h; type: cell-based, human; settings: HepG2; for pod_httr_bifrost PoD: HTTr BIFROST PoD; for podl_path_minbmd PoD: HTTr minimum pathway BMD(L)
Protocol: as §1

[5] = tested on: Thyroid hormone receptor alpha, THRA (h); experiment: IPP THRA coactivator recruitment (agonist); type: biochemical, human; settings: 100 uM; agonist; T3; * denotes assay interference (2-Amino-6-chloro-4-nitrophenol, HC Red 3)
[6] = ref [19-22]; cited from earlier work
human = settings: 7 month human volunteer study; ref [19-22]; cited from earlier work
[7] = tested on: Gamma-aminobutyric acid receptor subunit alpha-1 BZD site, GABRA1A (r); type: binding, rat
Tubulin (r) = experiment: IPP Tubulin binding; set-up: species or system rat; settings: 100 uM; ligand/control Colchicine
[8] = biological target: T1, Adenosine receptor A2a, ADORA2A (h) (Homo sapiens, UniProt P29274); experiment: IPP ADORA2A binding (agonist radioligand); settings: IPP screening at 100 uM; control NECA
T1 construct: purchased Eurofins Cerep (SafetyScreen44-based IPP panel)

monkey = settings: cited from earlier work
[9] = human
[10] = tested on: Sodium channel protein type 5 subunit alpha (site 2), SCN5A (r); type: binding, rat
MCF7 cells = experiment: High-throughput transcriptomics (HTTr, TempO-Seq), MCF7, 24 h; type: cell-based, human; settings: MCF-7; for pod_httr_bifrost PoD: HTTr BIFROST PoD; for podl_path_minbmd PoD: HTTr minimum pathway BMD(L)
Protocol: as §1

[11] = cited from earlier work
[12] = Assignment of risk classifications to benchmark chemical-exposure scenarios; settings: for risk: from table S1
[13] = skin penetration (PBK input)
[14] = biological target: Voltage-dependent L-type Ca2+ channel (dihydropyridine site), CACNA1C (r) (Rattus norvegicus, UniProt P22002); type: binding
[15] = per chemical see Peff Reference, cited from earlier work
[16] = cited from earlier work; remark: listed apart in the source
[17] = tested on: 63 targets with known safety liabilities; experiment: In vitro pharmacological profiling (IPP) panel, screening at 10 or 100 µM and dose response, minimum IC50/AC50; type: biochemical; settings: lowest AC50 across IPP panel (systemic targets); cell_type -; read-out: ipp_lowest_ac50_systemic PoD
[18] = intestinal absorption (PBK input); type: in vitro ADME; settings: levels L2/L3, converted from [36]
rat = settings: rat; repeat dose toxicity : oral; ref ToxRefDB/Paul-Friedman et al. (2020)/regulatory opinions; cited from earlier work
[19] = hepatic intrinsic clearance (Clint); settings: PBK input, levels L2/L3; scaled from [10]
[20] = IPP screening at 100 uM, control CGS 19755
[21] = PBK level L2, optimised based on [21] (glutaraldehyde), [23] (HCRed3), [28] (ibuprofen)
[22] = PBK level L3, optimised based on [28]
[23] = IPP screening at 100 uM, control diazepam
[24] = IV 200 mg slow IV (3min), 8 healthy male, validation, ref Martin et al. 1990
[25] = IV 400 mg slow IV (3min), 8 healthy male, validation, ref Martin et al. 1990
[26] = IV 800 mg infusion over five to seven minutes, 12 healthy, calibration, ref Pavliv et al. 2011
[27] = Oral 400 mg tablet, fasted, 18 healthy elderly, validation, ref Albert et al. 1984
[28] = Oral 500 mg ibuprofen lysine tablet (equivalent to 292.6 mg ibuprofen free acid), fasted, 8 healthy male, validation, ref Martin et al. 1990
[29] = Oral 800 mg tablet, fasted, 12 healthy, calibration, ref Pavliv et al. 2011
[30] = Oral 800 mg tablet, fasted, 13 healthy, validation, ref Duxin et al. 2017
[31] = Oral 800 mg tablet, fasted, 18 healthy elderly, validation, ref Albert et al. 1984
[32] = Oral 800 mg tablet, fed, 10 healthy, validation, ref Duxin et al. 2017
[33] = Oral 1200 mg tablet, fasted, 18 healthy elderly, validation, ref Albert et al. 1984

T1 sequence (P29274 whole entry): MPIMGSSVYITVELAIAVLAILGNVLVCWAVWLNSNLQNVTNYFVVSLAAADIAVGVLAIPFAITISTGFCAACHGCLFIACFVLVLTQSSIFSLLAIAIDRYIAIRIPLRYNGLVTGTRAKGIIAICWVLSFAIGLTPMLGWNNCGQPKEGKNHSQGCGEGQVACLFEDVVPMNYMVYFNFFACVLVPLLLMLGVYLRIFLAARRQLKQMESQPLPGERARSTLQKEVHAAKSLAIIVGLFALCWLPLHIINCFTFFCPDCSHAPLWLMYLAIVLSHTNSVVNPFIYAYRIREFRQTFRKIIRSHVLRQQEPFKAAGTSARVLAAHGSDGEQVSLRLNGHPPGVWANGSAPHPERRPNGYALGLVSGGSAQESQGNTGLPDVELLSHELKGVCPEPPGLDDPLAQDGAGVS
Voltage-dependent L-type Ca2+ channel (dihydropyridine site), CACNA1C (r), sequence (P22002 whole entry): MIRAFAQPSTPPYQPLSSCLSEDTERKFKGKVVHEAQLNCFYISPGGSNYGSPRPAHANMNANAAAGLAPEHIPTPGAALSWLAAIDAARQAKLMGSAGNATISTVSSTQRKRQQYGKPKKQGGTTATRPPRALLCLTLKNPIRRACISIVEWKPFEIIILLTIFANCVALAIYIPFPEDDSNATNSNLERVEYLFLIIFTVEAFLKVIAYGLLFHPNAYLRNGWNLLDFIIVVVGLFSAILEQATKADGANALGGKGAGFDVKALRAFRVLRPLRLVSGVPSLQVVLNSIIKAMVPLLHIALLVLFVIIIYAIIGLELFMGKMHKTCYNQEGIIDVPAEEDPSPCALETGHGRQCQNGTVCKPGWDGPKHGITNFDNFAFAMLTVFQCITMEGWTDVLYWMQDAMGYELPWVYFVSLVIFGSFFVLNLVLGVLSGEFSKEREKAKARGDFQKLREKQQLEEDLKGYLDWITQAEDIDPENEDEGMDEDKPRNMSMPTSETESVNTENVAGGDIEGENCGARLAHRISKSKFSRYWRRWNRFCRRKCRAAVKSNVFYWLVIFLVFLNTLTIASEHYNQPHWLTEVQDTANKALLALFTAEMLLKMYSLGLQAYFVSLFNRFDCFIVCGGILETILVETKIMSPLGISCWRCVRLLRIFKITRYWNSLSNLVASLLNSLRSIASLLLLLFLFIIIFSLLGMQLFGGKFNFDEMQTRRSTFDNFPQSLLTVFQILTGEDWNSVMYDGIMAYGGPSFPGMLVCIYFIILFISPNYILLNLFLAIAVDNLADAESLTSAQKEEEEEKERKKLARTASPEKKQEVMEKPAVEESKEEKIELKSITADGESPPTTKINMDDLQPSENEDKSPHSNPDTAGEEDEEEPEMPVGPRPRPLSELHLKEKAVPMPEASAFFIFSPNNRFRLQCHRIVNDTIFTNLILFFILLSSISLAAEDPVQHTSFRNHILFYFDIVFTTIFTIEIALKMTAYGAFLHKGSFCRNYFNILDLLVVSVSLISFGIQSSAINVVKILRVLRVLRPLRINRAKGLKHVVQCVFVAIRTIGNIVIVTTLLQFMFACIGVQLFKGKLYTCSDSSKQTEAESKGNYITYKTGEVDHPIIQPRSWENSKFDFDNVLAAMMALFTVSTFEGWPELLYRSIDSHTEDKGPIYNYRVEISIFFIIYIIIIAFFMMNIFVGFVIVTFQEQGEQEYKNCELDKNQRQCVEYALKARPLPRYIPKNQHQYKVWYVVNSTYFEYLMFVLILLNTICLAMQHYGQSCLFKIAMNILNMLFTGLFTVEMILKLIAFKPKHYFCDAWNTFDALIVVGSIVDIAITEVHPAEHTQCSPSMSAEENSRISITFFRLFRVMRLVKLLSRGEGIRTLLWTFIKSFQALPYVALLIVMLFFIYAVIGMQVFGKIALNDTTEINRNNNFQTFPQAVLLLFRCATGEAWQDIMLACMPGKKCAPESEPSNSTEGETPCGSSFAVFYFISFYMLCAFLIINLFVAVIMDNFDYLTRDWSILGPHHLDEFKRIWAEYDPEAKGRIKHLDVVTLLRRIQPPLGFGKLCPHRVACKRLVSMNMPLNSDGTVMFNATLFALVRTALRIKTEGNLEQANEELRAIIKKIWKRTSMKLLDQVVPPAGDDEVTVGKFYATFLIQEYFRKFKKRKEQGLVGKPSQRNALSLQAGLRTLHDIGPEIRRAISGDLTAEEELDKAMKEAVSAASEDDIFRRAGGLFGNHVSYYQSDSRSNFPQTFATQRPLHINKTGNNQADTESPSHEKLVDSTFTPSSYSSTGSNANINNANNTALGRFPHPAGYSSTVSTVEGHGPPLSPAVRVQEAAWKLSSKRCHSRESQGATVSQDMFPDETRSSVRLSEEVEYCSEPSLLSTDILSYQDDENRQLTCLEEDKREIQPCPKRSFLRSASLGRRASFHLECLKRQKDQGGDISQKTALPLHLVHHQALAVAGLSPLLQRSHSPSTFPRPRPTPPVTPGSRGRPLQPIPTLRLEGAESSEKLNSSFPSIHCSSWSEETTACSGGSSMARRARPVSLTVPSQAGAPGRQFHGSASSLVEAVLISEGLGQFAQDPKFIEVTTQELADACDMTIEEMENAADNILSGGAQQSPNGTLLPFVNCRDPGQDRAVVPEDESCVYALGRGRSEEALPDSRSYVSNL

O=S(=O)(O)NC1CCCCC1 [Cyclamate, Sodium cyclohexylsulfamate]
responding probes (with CDS > 0.5) (HepaRG cells): 7 | pod_cell_stress PoD (HepG2 cells [1]): 480.52 µM | Specific binding [2]: -4.4% | Specific binding [3]: 0.6% | responding probes (with CDS > 0.5) (HepG2 cells [4]): 22 | IPP screening %, Coactivator recruitment [5]: 2.0% | ADI [6]: 7 mg/kg bw/day | dietary level at which persistent diarrhoea was noted (human): ≥ 141 mg/kg bw/day | Specific binding [7]: -8.6% | IPP screening %, Specific binding (Tubulin (r)): 21.0% | Specific binding [8]: 1.0% | male monkeys showing testicular effects (monkey; lifetime monkey study, 500 mg/kg bw/day, at 23 years, ref [19-22]): 2/5 | risk [9]: 0 | Specific binding [10]: 19.1% | responding probes (with CDS > 0.5) (MCF7 cells): 18

CC(C)Cc1ccc(C(C)C(=O)O)cc1 (stereo not drawn) [Ibuprofen, 2-[4-(2-Methylpropyl)phenyl]propanoic acid]
pod_httr_bifrost PoD (HepaRG cells): 0.1626 µM | podl_path_minbmd PoD (HepaRG cells): 8.099 µM | pod_cell_stress PoD (HepG2 cells [1]): 8.518 µM | Specific binding [2, 20]: 7.2% | Specific binding [3]: -8.5% | pod_httr_bifrost PoD (HepG2 cells [4]): 7.6781 µM | podl_path_minbmd PoD (HepG2 cells [4]): 30.2909 µM | IPP screening %, Coactivator recruitment [5]: 1.0% | Fup ([11]; PBK level L2, single value or median, ref [2],[4],[6],[7],[8],[10],[11],[15],[18],[27],[34]): 1.3% | Fup ([11]; PBK level L3, single value or median, ref [2],[4],[6],[7],[8],[10],[11],[15],[18],[27],[34]): 1.3% | risk ([12]; Dermal, 10%, Gel, Exp3): 1 | risk ([12]; Oral, High therapeutic, 1200mg/day, Tablet, Exp1): 1 | risk ([12]; Oral, Low therapeutic, 200mg/day, Tablet, Exp2): 1 | Diffusivity Dermis [13, 21]: 1.00E-06 cm^2/s | Diffusivity Stratum Corneum [13, 21]: 1.00E-09 cm^2/s | Diffusivity Viable Epidermis [13, 21]: 1.00E-06 cm^2/s | Partition Coefficient Stratum Corneum/Water ([13]; PBK level L2, optimised based on [21] (glutaraldehyde), [23] (HCRed3), [28] (ibuprofen), no reference printed (DEET)): 1500.00 | Partition Coefficient Viable Epidermis/Water ([13]; PBK level L2, optimised based on [21] (glutaraldehyde), [28] (ibuprofen)): 700.00 | Diffusivity Vehicle ([13]; PBK level L2, optimised based on [23] (HCRed3), [28] (ibuprofen)): 1.00E-05 cm^2/s | Partition Coefficient Vehicle/Water ([13]; PBK level L2, optimised based on [28]): 10.00 | Diffusivity Dermis [13, 22]: 1.00E-06 cm^2/s | Diffusivity Stratum Corneum [13, 22]: 1.00E-09 cm^2/s | Diffusivity Vehicle [13, 22]: 1.00E-05 cm^2/s | Diffusivity Viable Epidermis [13, 22]: 1.00E-06 cm^2/s | Partition Coefficient Stratum Corneum/Water [13, 22]: 1500.00 | Partition Coefficient Vehicle/Water [13, 22]: 10.00 | Partition Coefficient Viable Epidermis/Water [13, 22]: 700.00 | Specific binding [7, 23]: 5.3% | IPP screening %, Specific binding (Tubulin (r)): -14.0% | Specific binding [14]: -14.3% | PoD (NOAEL) (monkey; monkey, 52 weeks, ref ToxRefDB/Paul-Friedman et al. (2020)/regulatory opinions): 40 mg/kg bw/day | Peff ([15]; PBK level L2, ref [3],[4],[11]): 5.034 cm/s x E-04 | Peff ([15]; PBK level L3, ref [4],[11]): 5.034 cm/s x E-04 | Specific binding [10]: 32.1% | pod_httr_bifrost PoD (MCF7 cells): 42.8965 µM | podl_path_minbmd PoD (MCF7 cells): 150.462 µM | Reported AUC0-t [16, 24]: 59.96 µg·h/mL | Reported cmax [16, 24]: 39 µg/mL | Reported AUC0-t [16, 25]: 117.4 µg·h/mL | Reported cmax [16, 25]: 79.75 µg/mL | Reported AUC0-t [16, 26]: 187.4 µg·h/mL | Reported cmax [16, 26]: 120.2 µg/mL | Reported AUC0-t [16, 27]: 128 µg·h/mL | Reported cmax [16, 27]: 32.5 µg/mL | Reported AUC0-t [16, 28]: 85.59 µg·h/mL | Reported cmax [16, 28]: 30.32 µg/mL | Reported AUC0-t [16, 29]: 187.4 µg·h/mL | Reported cmax [16, 29]: 57.3 µg/mL | Reported AUC0-t [16, 30]: 252 µg·h/mL | Reported cmax [16, 30]: 41.52 µg/mL | Reported AUC0-t [16, 31]: 236.6 µg·h/mL | Reported cmax [16, 31]: 60.2 µg/mL | Reported AUC0-t [16, 32]: 223 µg·h/mL | Reported cmax [16, 32]: 25.22 µg/mL | Reported AUC0-t [16, 33]: 279.2 µg·h/mL | Reported cmax [16, 33]: 71.1 µg/mL

CC(=O)Nc1ccc(O)cc1 [Paracetamol, N-(4-Hydroxyphenyl)acetamide]
pod_httr_bifrost PoD (HepaRG cells): 76.0572 µM | podl_path_minbmd PoD (HepaRG cells): 322.442 µM | pod_cell_stress PoD (HepG2 cells [1]): 40.132 µM | Specific binding [2, 20]: -4.2% | Specific binding [3]: -3.6% | pod_httr_bifrost PoD (HepG2 cells [4]): 9.465 µM | podl_path_minbmd PoD (HepG2 cells [4]): 262.202 µM | IPP screening %, Coactivator recruitment [5]: 1.0% | Fup ([11]; PBK input, level L2, ref [10]): 100% | Risk Classification ([12]; IV 4000 mg/day): High risk | risk ([12]; IV, High therapeutic, 4g/day, Exp3): 1 | Risk Classification ([12]; Oral 500 mg/day): High risk | Risk Classification ([12]; Oral 4000 mg/day): High risk | risk ([12]; Oral, High therapeutic, 4000mg/day, Tablet, Exp1): 1 | risk ([12]; Oral, Low therapeutic, 500mg/day, Tablet, Exp2): 1 | Specific binding [7, 23]: 8.7% | AC50 [17]: 39.1 µM | Peff [18]: 3.56 cm/s x E-04 | IPP screening %, Specific binding (Tubulin (r)): -2% | PoD (LOEL) (rat): 30 mg/kg bw/day | Intrinsic Liver Clearance [19]: 10.79 L/h | Specific binding [8]: 6.7% | Specific binding [10]: 34.9% | pod_httr_bifrost PoD (MCF7 cells): 4.261 µM | podl_path_minbmd PoD (MCF7 cells): 184.341 µM
